Measured values taken from patent US20110015080A1, “Solution-based methods for RNA expression profiling” (MASSACHUSETTS INSTITUTE OF TECHNOLOGY, priority 2005, published 2011).
Values joined by “and” are separate entries in the source; they are usually repeats but may differ in a detail not shown here. Equal entries are not always repeated.

Test system: HL60 (human promyelocytic leukemia) cells
Assay: LMA-FlexMAP bead-based gene expression signature analysis of total RNA from HL60 cells treated with tretinoin or DMSO (ninety transcripts); for FlexMap signal, transcript NM 000875 (LUA#55): test concentration or dose not given here
[1] = Experiment 2, HL60 cells, Tretinoin-treated, replicate columns
[2] = Table 6B Experiment 1, tretinoin-treated HL60 samples, one column per replicate

CC1=C(/C=C/C(C)=C/C=C/C(C)=C/C(=O)O)C(C)(C)CCC1 [tretinoin, all-trans-retinoic acid]
FlexMap signal, transcript NM_000698 (LUA#14) [1]: 1787 and 1685 and 64.5 and 1902 and 539 and 1934.5 and 1914.5 and 1773 and 1769 and 1871.5
FlexMap signal, transcript NM_000875 (LUA#55) [1]: 89 and 104 and 28.5 and 81 and 36 and 79 and 80 and 85 and 90 and 87.5
FlexMap signal, transcript NM_000962 (LUA#7) [1]: 873 and 822.5 and 65 and 900 and 253 and 845 and 904.5 and 846 (2×) and 930
FlexMap signal, transcript NM_001974 (LUA#11) [1]: 494 and 340.5 and 30 and 516.5 and 92.5 and 533 and 515 and 493 and 470 and 539
FlexMap signal, transcript NM_002358 (LUA#53) [1]: 109 (2×) and 94 and 33.5 and 103 (2×) and 39 and 96 and 97 and 119
FlexMap signal, transcript NM_003825 (LUA#8) [1]: 721 and 689.5 and 102 and 772 and 220 and 800 and 733 and 738 and 727 and 764
FlexMap signal, transcript NM_004514 (LUA#46) [1]: 399 and 424.5 and 25 and 469 and 99 and 428 and 445 and 422 and 420.5 and 460
FlexMap signal, transcript NM_004631 (LUA#52) [1]: 399 (2×) and 397 and 38.5 and 391 and 97 and 396 and 399.5 and 401.5 and 424
FlexMap signal, transcript NM_004782 (LUA#4) [1]: 1036.5 and 932 and 45 and 979.5 and 253 and 1005 and 1030 and 914 and 929 and 1044
FlexMap signal, transcript NM_005736 (LUA#1) [1]: 384.5 and 298.5 and 36.5 and 390 and 90.5 and 408 and 411 and 385 and 392 and 414.5
FlexMap signal, transcript NM_006457 (LUA#13) [1]: 131 (2×) and 121 and 43 and 115.5 (2×) and 65 and 118 and 120 and 117
FlexMap signal, transcript NM_006773 (LUA#47) [1]: 284 and 354.5 and 28 and 270 and 68 and 273 and 283 and 272 and 279 and 305
FlexMap signal, transcript NM_006948 (LUA#51) [1]: 980 and 887 and 51 and 974 and 248 and 1014 and 1006 and 963.5 and 958.5 and 1024.5
FlexMap signal, transcript NM_007331 (LUA#50) [1]: 102 and 115 (2×) and 24 and 47 and 95.5 and 96 and 97.5 and 94.5 and 111.5
FlexMap signal, transcript NM_013402 (LUA#54) [1]: 89 and 83 and 30 and 82 and 46 and 90.5 and 95.5 and 85 and 84.5 and 97
FlexMap signal, transcript NM_014288 (LUA#48) [1]: 63.5 and 55 and 22 and 52 and 33 and 60 and 57 (3×) and 65
FlexMap signal, transcript NM_014962 (LUA#5) [1]: 691 and 618 and 39 and 595.5 and 160 and 670.5 and 705 and 677.5 and 678 and 710
FlexMap signal, transcript NM_016061 (LUA#9) [1]: 450 and 440 and 48 and 458 and 121 and 470.5 and 464 and 468 and 459 and 503.5
FlexMap signal, transcript NM_017440 (LUA#49) [1]: 91 and 29 and 88 and 42 and 78 and 97 and 87.5 and 84 and 86.5
FlexMap signal, transcript NM_018217 (LUA#3) [1]: 980 and 922 and 48 and 935 and 258 and 992 and 1053.5 and 947 and 966 and 1022.5
FlexMap signal, transcript NM_032571 (LUA#15) [1]: 228 (2×) and 244 (2×) and 22.5 and 58.5 and 234 and 208 and 205 and 239
FlexMap signal, transcript NM_173823 (LUA#6) [1]: 760 and 592 and 36 and 736 and 182.5 and 758 and 734.5 and 658.5 and 681 and 816
FlexMap signal of transcript NM_014288 (LUA#48) (Experiment 3, tretinoin-treated samples, one column per sample): 45 and 48 and 30 and 25 and 30.5 and 39 and 43 and 33
NM_000070 (FlexMap ID LUA#2) signal [2]: 329.5 and 386 and 269.5 and 370 and 104.5 and 354 and 372 and 159 and 336 and 318
NM_000153 (FlexMap ID LUA#10) signal [2]: 357.5 and 432 and 324 and 419.5 and 120 and 384 and 408 and 170 and 374 and 377.5
NM_000632 (FlexMap ID LUA#12) signal [2]: 323.5 and 222 and 292 and 78 and 307 and 277 and 114 and 275.5 and 251
NM_000698 (FlexMap ID LUA#14) signal [2]: 1562 and 1779 and 1332.5 and 1743 and 503 and 1688 and 1686.5 and 787 and 1606 and 1552.5
NM_000875 (FlexMap ID LUA#55) signal [2]: 63 and 68 and 53 and 62 (2×) and 36 and 65 and 48 and 74 and 54
NM_000962 (FlexMap ID LUA#7) signal [2]: 754 and 894 and 663 and 823 and 294 and 793.5 and 807 and 398 and 772 and 764
NM_001974 (FlexMap ID LUA#11) signal [2]: 403 and 466 and 288 and 435.5 and 95 and 414 and 430 and 141 and 420.5 and 396
NM_002358 (FlexMap ID LUA#53) signal [2]: 99 (2×) and 113 and 72 and 98 (2×) and 53 and 96 and 58 and 85
NM_003825 (FlexMap ID LUA#8) signal [2]: 557 and 658 and 476.5 and 630.5 and 256 and 580 and 609 and 318 and 584 and 550
NM_004514 (FlexMap ID LUA#46) signal [2]: 312.5 and 356 and 262 and 320 and 96 and 306 and 313 and 144.5 and 302 and 286
NM_004631 (FlexMap ID LUA#52) signal [2]: 304 and 352 and 238 and 334 and 103 and 331 and 310.5 and 135.5 and 326 and 289.5
NM_004782 (FlexMap ID LUA#4) signal [2]: 790.5 and 907 and 635 and 855 (2×) and 232 and 870 and 812.5 and 341 and 750
NM_005736 (FlexMap ID LUA#1) signal [2]: 308 and 336 and 319 and 351 and 89 and 329 and 319.5 and 138.5 and 309 and 279
NM_006457 (FlexMap ID LUA#13) signal [2]: 144 and 135 (2×) and 113 and 78 and 123 and 136 and 90 and 151.5 and 132
NM_006773 (FlexMap ID LUA#47) signal [2]: 213 (2×) and 257 and 139 and 56.5 and 216 and 219 and 79.5 and 235 and 174
NM_006948 (FlexMap ID LUA#51) signal [2]: 742 and 840.5 and 592.5 and 791.5 and 224 and 773.5 and 795 and 325 and 762 and 716.5
NM_007331 (FlexMap ID LUA#50) signal [2]: 85.5 and 97 and 70 and 81 and 42 and 96 and 87 and 53 and 91 and 80
NM_013402 (FlexMap ID LUA#54) signal [2]: 72 (2×) and 71 and 62 and 75 (2×) and 43 and 75.5 and 48.5 and 71.5
NM_014288 (FlexMap ID LUA#48) signal [2]: 64 and 62 and 55 and 61 and 45 and 60 (2×) and 56 and 41.5 and 59
NM_014962 (FlexMap ID LUA#5) signal [2]: 537 and 575.5 and 414.5 and 556 and 171.5 and 552.5 and 567 and 232 and 576.5 and 516.5
NM_016061 (FlexMap ID LUA#9) signal [2]: 362.5 and 422 and 297 and 401 and 128 and 385 and 382 and 173 and 357.5 and 357
NM_017440 (FlexMap ID LUA#49) signal [2]: 59 and 66 and 55 and 68 (2×) and 40 and 67 and 48.5 and 66.5 and 62
NM_018217 (FlexMap ID LUA#3) signal [2]: 747 and 886 and 659.5 and 824 and 225.5 and 823 and 800 and 343 and 785 and 727
NM_032571 (FlexMap ID LUA#15) signal [2]: 144 and 188 and 125 and 161 and 60 and 169 and 164.5 and 81 and 172.5 and 146
NM_173823 (FlexMap ID LUA#6) signal [2]: 591.5 and 718 and 482.5 and 654 and 186.5 and 675 and 646 and 291 and 604.5 and 573
